According to ChEMBL document CHEMBL4219090, “Synthesis and biological evaluation of polyhydroxylated oxindole derivatives as potential antileishmanial agent” (Bioorg Med Chem Lett, 2018):
Calls of active or inactive are those of the source. The calls are words filed in the database; no cut-off is given here.

Experiments:
Leishmania donovani [1] = test: Antileishmanial activity against Leishmania donovani MHOM/IN/1983/AG83 promastigotes transformed from splenic intracellular amastigotes of infected BALB/c mouse after 48 hrs by MTT assay; type: functional, organism-based; conditions: MHOM/IN/1983/AG83, 48 h
Leishmania donovani [2] = test: Antileishmanial activity against Leishmania donovani MHOM/IN/1983/AG83 promastigotes transformed from splenic intracellular amastigotes of infected BALB/c mouse after 48 hrs by […]; type: functional, organism-based; conditions: MHOM/IN/1983/AG83, 48 h
Leishmania donovani [3] = test: Antileishmanial activity against Leishmania donovani MHOM/IN/1983/AG83 promastigotes transformed from splenic intracellular amastigotes of infected BALB/c mouse assessed as parasite survival at 32 uM after 48 hrs by MTT assay (reference value: 100%); type: functional; conditions: MHOM/IN/1983/AG83, 48 h
Leishmania donovani [4] = test: Antileishmanial activity against Leishmania donovani MHOM/IN/1983/AG83 promastigotes transformed from splenic intracellular amastigotes of infected BALB/c mouse assessed as parasite survival at 16 uM after 48 hrs by MTT assay (reference value: 100%); type: functional; conditions: MHOM/IN/1983/AG83, 48 h
Leishmania donovani [5] = test: Antileishmanial activity against Leishmania donovani MHOM/IN/1983/AG83 promastigotes transformed from splenic intracellular amastigotes of infected BALB/c mouse assessed as parasite survival at 8 uM after 48 hrs by MTT assay (reference value: 100%); type: functional; conditions: MHOM/IN/1983/AG83, 48 h
Leishmania donovani [6] = test: (§1) Cell cycle arrest in Leishmania donovani MHOM/IN/1983/AG83 promastigotes transformed from splenic intracellular amastigotes of infected BALB/c mouse assessed as accumulation at sub-G0/G1 phase at IC50 by propidium iodide staining-based flow cytometric analysis; type: functional, organism-based; conditions: TDE = time-dependent effect
Leishmania donovani [7] = test: Induction of apoptosis in Leishmania donovani MHOM/IN/1983/AG83 promastigotes transformed from splenic intracellular amastigotes of infected BALB/c mouse assessed as late apoptotic cells at 15 uM after 24 hrs by Annexin V-PE/7-AAD staining-based flow cytometric analysis relative to control; type: functional
[8] = Cytotoxicity against PHA-stimulated mouse splenocytes assessed as cell survival at 64 uM after 96 hrs by MTT assay (reference value: 100%); type: cell-based, Splenocyte; conditions: read-out: Survival
[9] = Cytotoxicity against PHA-stimulated mouse splenocytes assessed as cell survival at 128 uM after 96 hrs by MTT assay (reference value: 100%); type: cell-based, Splenocyte; conditions: read-out: Survival
Leishmania donovani [10] = test: (§2) Induction of apoptosis in Leishmania donovani MHOM/IN/1983/AG83 promastigotes transformed from splenic intracellular amastigotes of infected BALB/c mouse assessed as necrotic cells at 15 uM after 48 hrs by Annexin V-PE/7-AAD staining-based flow cytometric analysis (reference value: 1.51%); type: functional
Leishmania donovani [11] = test: as §1, with “IC50 after 24 hrs” for “IC50”, “analysis (reference value: 2.61 +/- 0.33%)” for “analysis”; type: functional
Leishmania donovani [12] = test: Induction of apoptosis in Leishmania donovani MHOM/IN/1983/AG83 promastigotes transformed from splenic intracellular amastigotes of infected BALB/c mouse assessed as chromatin condensation after 48 hrs by DAPI staining-based confocal laser scanning microscopic analysis; type: functional, organism-based
Leishmania donovani [13] = test: as §1, with “IC50 after 48 hrs” for “IC50”, “analysis (reference value: 2.61 +/- 0.33%)” for “analysis”; type: functional
Leishmania donovani [14] = test: Induction of ROS generation in Leishmania donovani MHOM/IN/1983/AG83 promastigotes transformed from splenic intracellular amastigotes of infected BALB/c mouse at IC50 by H2DCFDA probe-based flow cytometric analysis; type: functional, organism-based; conditions: TDE = time-dependent effect
Leishmania donovani [15] = test: Antileishmanial activity against Leishmania donovani MHOM/IN/1983/AG83 promastigotes transformed from splenic intracellular amastigotes of infected BALB/c mouse assessed as parasite survival at 64 uM after 48 hrs by MTT assay (reference value: 100%); type: functional; conditions: MHOM/IN/1983/AG83, 48 h
[16] = Cytotoxicity against PHA-stimulated mouse splenocytes assessed as cell survival at 8 uM after 96 hrs by MTT assay (reference value: 100%); type: cell-based, Splenocyte; conditions: read-out: Survival
Leishmania donovani [17] = test: Induction of nitric oxide generation in Leishmania donovani MHOM/IN/1983/AG83 amastigotes infected in BALB/c mouse peritoneal macrophages at IC50 by Griess reagent based analysis relative to control; type: functional
Leishmania donovani [18] = test: Induction of apoptosis in Leishmania donovani MHOM/IN/1983/AG83 promastigotes transformed from splenic intracellular amastigotes of infected BALB/c mouse assessed as early apoptotic cells at 15 uM after 24 hrs by Annexin V-PE/7-AAD staining-based flow cytometric analysis relative to control; type: functional
Leishmania donovani [19] = test: Induction of apoptosis in Leishmania donovani MHOM/IN/1983/AG83 promastigotes transformed from splenic intracellular amastigotes of infected BALB/c mouse assessed as viable cells at 15 uM after 48 hrs by Annexin V-PE/7-AAD staining-based flow cytometric analysis (reference value: 84.97%); type: functional
Leishmania donovani [20] = test: Induction of apoptosis in Leishmania donovani MHOM/IN/1983/AG83 promastigotes transformed from splenic intracellular amastigotes of infected BALB/c mouse assessed as late apoptotic cells at 15 uM by Annexin V-PE/7-AAD staining-based flow cytometric analysis; type: functional, organism-based; conditions: TDE = time-dependent effect
Leishmania donovani [21] = test: Induction of apoptosis in Leishmania donovani MHOM/IN/1983/AG83 promastigotes transformed from splenic intracellular amastigotes of infected BALB/c mouse assessed as accumulation of lipid droplets in cytoplasm after 48 hrs by Nile red staining-based confocal laser scanning microscopic analysis; type: functional, organism-based
Leishmania donovani [22] = test: Induction of ROS generation in Leishmania donovani MHOM/IN/1983/AG83 promastigotes transformed from splenic intracellular amastigotes of infected BALB/c mouse at IC50 measured at 6 hrs by H2DCFDA probe-based flow cytometric analysis relative to control; type: functional
[23] = Cytotoxicity against PHA-stimulated mouse splenocytes assessed as cell survival at 32 uM after 96 hrs by MTT assay (reference value: 100%); type: cell-based, Splenocyte; conditions: read-out: Survival
Leishmania donovani [24] = test: Induction of apoptosis in Leishmania donovani MHOM/IN/1983/AG83 promastigotes transformed from splenic intracellular amastigotes of infected BALB/c mouse assessed as viable cells at 15 uM after 24 hrs by Annexin V-PE/7-AAD staining-based flow cytometric analysis relative to control; type: functional
Leishmania donovani [25] = test: as §2, with “early apoptotic” for “necrotic”, “10.98 +/- 1.22%)” for “1.51%)”; type: functional
[26] = Cytotoxicity against PHA-stimulated mouse splenocytes assessed as cell survival at 16 uM after 96 hrs by MTT assay (reference value: 100%); type: cell-based, Splenocyte; conditions: read-out: Survival
Leishmania donovani [27] = test: Induction of apoptosis in Leishmania donovani MHOM/IN/1983/AG83 promastigotes transformed from splenic intracellular amastigotes of infected BALB/c mouse assessed as nuclei blebbing after 48 hrs by DAPI staining-based confocal laser scanning microscopic analysis; type: functional, organism-based
Leishmania donovani [28] = test: Antileishmanial activity against Leishmania donovani MHOM/IN/1983/AG83 promastigotes transformed from splenic intracellular amastigotes of infected BALB/c mouse assessed as parasite survival at 128 uM after 48 hrs by MTT assay (reference value: 100%); type: functional; conditions: MHOM/IN/1983/AG83, 48 h
Leishmania donovani [29] = test: as §2, with “late apoptotic” for “necrotic”, “2.55 +/- 0.49%)” for “1.51%)”; type: functional
Leishmania donovani [30] = test: Cell cycle arrest in Leishmania donovani MHOM/IN/1983/AG83 promastigotes transformed from splenic intracellular amastigotes of infected BALB/c mouse assessed as accumulation at G0/G1 phase at IC50 after 48 hrs by propidium iodide staining-based flow cytometric analysis (reference value: 81.06%); type: functional
Leishmania donovani [31] = test: Induction of apoptosis in Leishmania donovani MHOM/IN/1983/AG83 promastigotes transformed from splenic intracellular amastigotes of infected BALB/c mouse assessed as necrotic cells at 15 uM after 24 hrs by Annexin V-PE/7-AAD staining-based flow cytometric analysis relative to control; type: functional
Leishmania donovani [32] = test: Antileishmanial activity against Leishmania donovani MHOM/IN/1983/AG83 amastigotes infected in BALB/c mouse peritoneal macrophages at 1 uM after 48 hrs by phase contrast microscopic analysis relative to control; type: functional
Leishmania donovani [33] = test: Induction of apoptosis in Leishmania donovani MHOM/IN/1983/AG83 promastigotes transformed from splenic intracellular amastigotes of infected BALB/c mouse assessed as early apoptotic cells at 15 uM by Annexin V-PE/7-AAD staining-based flow cytometric analysis; type: functional, organism-based; conditions: TDE = time-dependent effect

CCCCCCCCCCCCCCCCOP(=O)([O-])OCC[N+](C)(C)C [MILTEFOSINE]
IC50 (Leishmania donovani [1]): 21 µM | IC50 (Leishmania donovani [2]): 21 µM

O=C1C(=C(c2ccc(O)cc2)c2ccc(O)cc2)c2ccccc2N1Cc1ccc(O)cc1
IC50 (Leishmania donovani [1]): 200 µM | survival at 32 µM (Leishmania donovani [3]): 92% | survival at 16 µM (Leishmania donovani [4]): 96.7% | survival at 8 µM (Leishmania donovani [5]): 98.3%

O=C1C(=C(c2ccc(O)cc2)c2ccc(O)cc2)c2cc(/C=C/c3ccc(O)c(O)c3)ccc2N1Cc1ccc(O)cc1
Activity (Leishmania donovani [6]): Tde | Activity (Leishmania donovani [7]): 14.76% | viability at 96 h, 64 µM [8]: 87.3% | viability at 96 h, 128 µM [9]: 85.2% | Activity (Leishmania donovani [10]): 4.09% | Activity (Leishmania donovani [11]): 6.79 - 6.97% | Activity (Leishmania donovani [12]): Active | Activity (Leishmania donovani [13]): 8.86% | Activity (Leishmania donovani [14]): Tde | IC50 (Leishmania donovani [1]): 15 µM | survival at 64 µM (Leishmania donovani [15]): 17.9% | viability at 96 h, 8 µM [16]: 96.6% | fold change (FC) (Leishmania donovani [17]): 3 | Activity (Leishmania donovani [18]): 35.01% | Activity (Leishmania donovani [19]): 38.43% | survival at 32 µM (Leishmania donovani [3]): 31.6% | Activity (Leishmania donovani [20]): Tde | Activity (Leishmania donovani [21]): Active | fold change (FC) (Leishmania donovani [22]): >3 | viability at 96 h, 32 µM [23]: 90.5% | Activity (Leishmania donovani [24]): 45.2% | Activity (Leishmania donovani [25]): 42.08% | viability at 96 h, 16 µM [26]: 92.3% | Activity (Leishmania donovani [27]): Active | survival at 128 µM (Leishmania donovani [28]): 5.42% | survival at 16 µM (Leishmania donovani [4]): 46.7% | survival at 8 µM (Leishmania donovani [5]): 96.2% | Activity (Leishmania donovani [29]): 15.39% | Activity (Leishmania donovani [30]): 71.37% | Activity (Leishmania donovani [31]): 5.03% | Activity (Leishmania donovani [32]): 50% | Activity (Leishmania donovani [33]): Tde

COc1ccc(CN2C(=O)C(=C(c3ccc(O)cc3)c3ccc(O)cc3)c3cc(/C=C/c4ccc(C)c(C)c4)ccc32)cc1
IC50 (Leishmania donovani [1]): 225 µM | survival at 32 µM (Leishmania donovani [3]): 93.7% | survival at 16 µM (Leishmania donovani [4]): 95.5% | survival at 8 µM (Leishmania donovani [5]): 97.2%

COc1ccc(CN2C(=O)C(=C(c3ccc(O)cc3)c3ccc(O)cc3)c3cc(/C=C/c4ccc(F)c(F)c4)ccc32)cc1
IC50 (Leishmania donovani [1]): 220 µM | survival at 32 µM (Leishmania donovani [3]): 93.2% | survival at 16 µM (Leishmania donovani [4]): 96% | survival at 8 µM (Leishmania donovani [5]): 97.5%

COc1ccc(CN2C(=O)C(=C(c3ccc(O)cc3)c3ccc(O)cc3)c3cc(/C=C/c4ccc(OC)c(OC)c4)ccc32)cc1
IC50 (Leishmania donovani [1]): 31 µM | survival at 32 µM (Leishmania donovani [3]): 53.7% | survival at 16 µM (Leishmania donovani [4]): 70.6% | survival at 8 µM (Leishmania donovani [5]): 79.2%

COc1ccc(CN2C(=O)C(=C(c3ccc(O)cc3)c3ccc(O)cc3)c3ccccc32)cc1
IC50 (Leishmania donovani [1]): 47.2 µM | survival at 32 µM (Leishmania donovani [3]): 66.1% | survival at 16 µM (Leishmania donovani [4]): 81% | survival at 8 µM (Leishmania donovani [5]): 96.4%
